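Values below derive from 48-hour exposures of cells grown in 96-well plates, with endpoints linearly interpolated between the two concentrations bracketing the appropriate inhibition level. TGI: concentration producing complete growth inhibition.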
Legend:
Experiment in all cases: NCI tumour cell line growth inhibition, 48 h
[1] = test system: SK-MEL-5 melanoma
[2] = test system: EKVX NSCLC
[3] = test system: A549 NSCLC
[4] = test system: SN12K1 renal
[5] = test system: SF-268 CNS
[6] = test system: HCT-15 colon
[7] = test system: HCC-2998 colon
[8] = test system: OVCAR-3 ovarian
[9] = test system: NCI-H460 lung
[10] = test system: HOP-62 NSCLC
[11] = test system: KM20L2 colon
[12] = test system: U251 CNS
[13] = test system: UACC-62 melanoma
[14] = test system: K-562 leukemia
[15] = test system: A498 renal
[16] = test system: CAKI-1 renal
[17] = test system: SW-620 colon
[18] = test system: OVCAR-8 ovarian
[19] = test system: IGROV1 ovarian
[20] = test system: SF-295 CNS
[21] = test system: SNB-19 CNS
[22] = test system: SNB-75 CNS
[23] = test system: DMS 273 small cell lung
[24] = test system: SK-MEL-2 melanoma
[25] = test system: OVCAR-5 ovarian
[26] = test system: NCI-H226 lung
[27] = test system: CCRF-CEM leukemia
[28] = test system: HL-60(TB) leukemia
[29] = test system: NCI-H23 lung
[30] = test system: MOLT-4 leukemia
[31] = test system: NCI-H522 lung
[32] = test system: LOX IMVI melanoma
[33] = test system: MALME-3M melanoma
[34] = test system: SF-539 CNS
[35] = test system: HCT-116 colon
[36] = test system: SK-MEL-28 melanoma
[37] = test system: OVCAR-4 ovarian
[38] = test system: HOP-92 NSCLC
[39] = test system: NCI/ADR-RES ovarian
[40] = test system: HOP-18 NSCLC
[41] = test system: SK-OV-3 ovarian
[42] = test system: P388/ADR leukemia
[43] = test system: MCF7 breast
[44] = test system: RPMI-8226 leukemia
[45] = test system: KM12 colon
[46] = test system: COLO 205 colon
[47] = test system: SN12C renal
[48] = test system: UACC-257 melanoma
[49] = test system: P388 leukemia
[50] = test system: SNB-78 CNS
[51] = test system: DLD-1 colon
[52] = test system: HT29 colon
[53] = test system: M19-MEL melanoma
[54] = test system: UO-31 renal
[55] = test system: DMS 114 small cell lung
[56] = test system: XF 498 CNS
[57] = test system: TK-10 renal
[58] = test system: RXF-631 renal
[59] = test system: RXF 393 renal
[60] = test system: ACHN renal
[61] = test system: 786-0 renal
[62] = test system: M14 melanoma
[63] = test system: LXFL 529 NSCLC
[64] = test system: SR leukemia

Measured: TGI

O=C(NC(Cc1ccc(I)cc1)C(=O)O)c1cccc(Br)c1 (centres undefined)
> 93.1 µM: [7]
not listed: [56] | [57] | [58] | [59] | [60] | [61] | [62] | [63] | [64]
> 100 µM: all other assays above

Cc1ccccc1NC(=O)/C(=N/NC(=O)CC#N)C1C(=O)N(c2ccccc2)N=C1N (centres undefined)
88.9 µM: [27]
not listed: [4] | [39] | [42] | [43] | [49]
> 100 µM: all other assays above

From PubChem BioAssay (NCI)
